Experiments:
Assay type in all cases: physicochemical
[1] = Micromeritic properties of API and formula powders
Source text: Detection of micromeritic properties: The micromeritic properties of the SHEN26 compound raw material and the micromeritic properties of the mixed powder obtained by directly mixing the SHEN26 compound and other auxiliary materials were detected.
Preparation method: pulverizing the compound SHEN26, sieving the compound (sieving separately with a 40-mesh sieve and a 60-mesh sieve), mixing with a pharmaceutically acceptable excipient, performing dry granulation, adding an external lubricant, mixing, and filling capsules to give a capsule of the compound SHEN26. Observation of phenomenon: After dry granulation, the micromeritic properties were examined, and the results are shown in Table 12. Dissolution detection: The compound SHEN26 capsules obtained in Example 4 were separately detected for the dissolution, and the results are shown in Table 13.

[2] = Compatibility of raw material and auxiliary material; details: 60° C., 25° C./90% RH, 40° C./75% RH, illumination; 30 days
Source text: Operation: Common auxiliary materials of solid oral dosage forms were selected to be mixed with the SHEN26 drug substance in different ratios, and the mixtures were placed under different conditions and separately taken out at different time points. The compatibility of the drug substance and the auxiliary materials was judged by taking the appearance, the hygroscopic weight gain, the content and the related substance as indexes. For the ratio of the raw and auxiliary materials, according to “Basic Technical Guidelines for Research of Chemical Drug Formulation” and the specification of the formulation, the auxiliary material with a relatively large amount was determined according to a ratio of main drug:diluent=1:5, the auxiliary material with a moderate amount (such as croscarmellose sodium) was mixed according to a ratio of main drug:disintegrant=1:1, and the auxiliary material with a relatively small amount (such as magnesium stearate) was mixed according to a ratio of main drug:lubricant=5:1. The manufacturer information of the raw and auxiliary materials in the compatibility experiment and the ratio of raw and auxiliary materials are shown in Table 16. […]

[3] = Stability investigation - related substance; details: API, package N/A, condition N/A
Procedure: 37167-054A and 37167-054B were packed as described in Table 17 and Table 18, then separately placed under illumination (open), 40° C./75% RH (open), and 40° C./75% RH (closed) conditions for 0 day, 10 days, and 30 days, and detected for the dissolution and related substance.

## CC(C)C(=O)OC[C@H]1O[C@@](C#N)(c2ccc3c(N)ncnn23)[C@H](O)[C@@H]1O [SHEN26]
[1]
  Angle of repose (°): 40.98 °
  Bulk density: 0.53 g/mL
  Carr index (%): 27.40%
  Tap density: 0.73 g/mL
[2]
  Compatibility with auxiliary materials (appearance, hygroscopic weight gain, content, related substance): good compatibility
[3]
  Related substance % RRT 0.37: 0.26%
  Related substance % RRT 0.54: 0.35%
  Related substance % RRT 1.03: 0.15%
  Related substance % RRT 1.30: 0.05%
  Total impurity %: 0.81%

Reference: patent US20250339377A1, “PHARMACEUTICAL COMPOSITION OF NUCLEOSIDE-DERIVED COMPOUND, PREPARATION METHOD THEREFOR, AND USE THEREOF” (SHENZHEN ANTIV PHARMA CO., LTD., priority 2022, published 2025)
